US7700741B2, “High affinity anti-N1,N12-diacetylspermine monoclonal antibody” (Trans Genic Inc., priority 2005, dated 2010)

Key:
[1] = tested on: anti-DiAcSpm polyclonal antibody; assay: Evaluation of immunizing antigen lots (inhibition of polyclonal antibody reaction with solid-phased antigen); assay type: binding, rabbit; conditions: six lots compared; absorbance at 492 nm; FIG. 1
Procedure: The antigen was evaluated using DiAcSpm specific polyclonal antibody. Six lots of the antigen prepared in (1) above were examined on their activities to inhibit the reaction of anti-DiAcSpm polyclonal antibody with solid-phased AcSpm-HMC-AcSpm, by the method described later in Experimental Example 1.
AcSpm-HMC-peptide diluted with PBS (pH 7.0) to 0.07 μg/ml was added to 96-well microtiter plates at 50 μl/well as an antigen to be solid-phased, and left at 25° C. for 1.5 hours. Subsequently, the plates were washed with 0.05% Tween20-containing PBS (pH 7.0) (PBST) three times. Then, 0.5% gelatin-containing PBST (blocking solution) was added thereto at 200 μl/well and left at 25° C. for 1 hour. The plates were frozen at −30° C. overnight to freeze the blocking solution for freeze-drying to thereby prepare freeze-dried plates. To each well of dilution plates, 70 μl of 10 μg/ml anti-DiAcSpm polyclonal antibody and 70 μl of each lot of the immunizing antigen AcSpm-GMB-AMS-BSA with serially varied concentration were mixed and added, and left at 25° C. for 1 hour for pre-reaction. Subsequently, to each well of the freeze-dried plates prepared in Experimental Example 1, 300 μl of PBST was added, left at 25° C. for 30 minutes and then re-washed with PBST once. To each well of these plates, 50 μl of the pre-reacted reaction solution was added and left at 25° C. for 1 hour. Then, after washing with PBST three times, 50 μl of 80-fold dilution of HRP-labeled anti-rabbit IgG antibody (Bio-Rad) was added to each well and left at 25° C. for 1 hour. Subsequently, after washing with PBST three times, 100 μl of o-phenylenediamine solution diluted with 0.012% hydrogen peroxide-containing 0.1 M citrate phosphate buffer (pH 5.0) to 0.5 mg/ml was added to each well and left at 25° C. for 9 minutes. Then, absorbances at 492 nm were measured with an ELISA reader.

[2] = target: anti-DiAcSpm monoclonal antibody; assay: Kit competitive ELISA with solid-phased AcSpm-HMC-peptide, crossreactivities of structure analogs; assay type: binding, mouse; conditions: for KiDiAcSpm/Ki"S" (%) . . . (1): 15 ng/ml antibody, 0.07 μg/ml solid-phased antigen; for Crossreactivity (1) × (2) (%): crossreactivity in urine, Ki ratio × urinary ratio
Procedure: As a measuring kit, competitive ELISA using a solid-phased antigen AcSpm-HMC-peptide was performed based on known methods (Hiramatsu, K. et al., J. Biochem., 124, 231-236 (1998)). As the primary antibody, the monoclonal antibody prepared in Example 1 was used. As the secondary antibody, a commercial, goat-derived HRP-labeled anti-mouse IgG antibody (KPL) was used. The concentration of the solid-phased antigen was set at 0.07 μg/ml based on the concentration employed in a kit using anti-DiAcSpm polyclonal antibody. With respect to the concentration of anti-DiAcSpm monoclonal antibody to be used, 15 ng/ml was selected so that 40% of the maximum reaction efficiency (the point at which the absorbance at 492 nm becomes 1) is achieved when the concentration of the solid-phased antigen AcSpm-HMC-peptide is 0.07 μg/ml (FIG. 4). The dilution ratio of the goat-derived HRP-labeled anti-mouse IgG antibody was set at 2,500-fold from experience.
First, under the conditions established in (1) above, crossreactivities of structure analogs of DiAcSpm with DiAcSpm in urine samples were examined. Briefly, the 50% inhibition activity concentrations of DiAcSpm, N^1-AcSpm, DiAcSpd, N^1-AcSpd, N^8-AcSpd and DiAcPut in the kit were examined, and the crossreactivities of other structure analogs with DiAcSpm in urine were calculated. As a result, crossreactivity with N^1-AcSpd (whose crossreactivity is most apprehended) was 1.62%; crossreactivity with AcSpm was 0.54%; crossreactivity with DiAcSpd was 0.002%; crossreactivity with N^8-AcSpd was 0.01%; crossreactivity with AcPut was 0.01%; and the total crossreactivity was 2.17% (Table 2).

[3] = tested on: monoclonal antibodies to DiAcSpm (Fujiwara et al., Japanese Unexamined Patent Publication No. H11-75839); assay: Prior-art 50% binding inhibition of immunoreaction (Fujiwara et al. antibodies); conditions: crossreactivity with DiAcSpm taken as 100; N^1-AcSpd about 25 times DiAcSpm in urine
Description: Recently, Fujiwara et al. prepared monoclonal antibodies to DiAcSpm (Japanese Unexamined Patent Publication No. H11-75839). With these antibodies, 50% binding inhibition activity against immunoreaction with DiAcSpm is only about 100 times as much as 50% binding inhibition activity against immunoreaction with N^1-acetylspermidine (hereinafter expressed as “N^1-AcSpd”) and is only about 20 times as much as 50% binding inhibition activity against immunoreaction with N^1-acetylspermine (hereinafter expressed as “N^1-AcSpm”) which is a monoacetylated form of spermine. Since the amount of N^1-AcSpd in the urine of healthy persons is about 25 times as much as the amount of DiAcSpm therein, the crossreactivity of the above antibody with N^1-AcSpd in the urine of healthy persons is 25 when the crossreactivity of the antibody with DiAcSpm therein is taken as 100. Therefore, the antibody may yield false-positive results. Accordingly, in order to enhance the measuring sensitivity for DiAcSpm, a DiAcSpm-specific monoclonal antibody whose crossreactivities with N^1-AcSpd and N^8-acetylspermidine (hereinafter expressed as “N^8-AcSpd”) are still lower is required.

[4] = tested on: anti-DiAcSpm antibodies in culture supernatants of DiAcSpm positive clones; assay: Crossreactivity test on antibody production positive clones (culture supernatant, competitive ELISA); assay type: binding, mouse
Description: Out the DiAcSpm positive clones obtained above, 51 clones with relatively high antibody titers were selected and tested for crossreactivity with N^1-AcSpd (which is present in urine abundantly and believed to cross-react relatively easy from the results of researches made so far) by the method described later in Experimental Example 3. As a result, with respect to two wells, the 50% reaction inhibition activity of N^1-AcSpd was about 800 times as much as that of DiAcSpm; with respect to one well, the 50% reaction inhibition activity of N^1-AcSpd was 3,000 times as much as that of DiAcSpm; and with respect to the other wells, the 50% reaction inhibition activity of N^1-AcSpd was 0-200 times as much as that of DiAcSpm.
(§1) Antibody titers in diluted culture supernatants were measured by the method described in Experimental Example 2. Based on the results, the dilution rate with which the absorbance at 492 nm becomes 1 was selected. To each well of dilution plates, 70 μl of culture supernatant diluted at the dilution rate selected above and 70 μl of DiAcSpm solution with serially varied concentration or a structure analog of DiAcSpm (N^1-AcSpm, N^1-AcSpd, DiAcSpd, or the like) with serially varied concentration were mixed and added, and then left at 25° C. for 1 hour for pre-reaction. Subsequently, to each well of freeze-dried plates prepared in the same manner as in Experimental Example 1, 300 μl of BST was added, left at 25° C. for 30 minutes and re-washed with BST once. To the resultant plates, the pre-reacted reaction solution was added at 50 μl/well and left at 25° C. for 1 hour. Then, after washing with PBST three times, 50 μl of 80-fold dilution of HRP-labeled anti-mouse IgG antibody (KPL) was added to each well and left at 25° C. for 1 hour. Subsequently, after washing with PBST three times, 100 μl of o-phenylenediamine solution diluted with 0.012% hydrogen peroxide-containing 0.1 M citrate phosphate buffer (pH 5.0) to 0.5 mg/ml was added to each well and left at 25° C. for 9 minutes. Then, absorbances at 492 nm were measured with an ELISA reader.

[5] = tested on: anti-DiAcSpm monoclonal antibody CN647; assay: Crossreactivity test on cloned wells (culture supernatant of CN647 strain); assay type: binding, mouse; conditions: all three cloned wells, one designated CN647; FIG. 3
Procedure: Briefly, cells were diluted with 20% FCS-containing RPMI medium to a density of 2.5 cells/ml and added to two 96-well culture plates at 200 μl/well. After five days, single colonies were examined. As a result, a single colony was confirmed in 17 wells out of the two 96-well plates. After 10 days, antibody titers to DiAcSpm were measured in culture supernatants by the method described in Experimental Example 2. Three wells were positive. Cells in these three wells were cultured further and tested for crossreactivities with AcSpm, N^1-AcSpd, N^8-AcSpd, DiAcSpd and AcPut by the method described in Experimental Example 3. […] Thus, antibodies sufficient to achieve the object have been obtained (FIG. 3). One of them was designated “established clone CN647”.
as §1, with “Subsequently, after washing with PBST three times, 100 μl of o-phenylenediamine solution diluted with 0.012% hydrogen peroxide-containing 0.1 M citrate phosphate buffer (pH 5.0) to 0.5 mg/ml was added to each well and left at 25° C. for 9 minutes.” left out

[6] = tested on: monoclonal antibodies to DiAcSpm (Fujiwara et al., Japanese Unexamined Patent Publication No. H11-75839); conditions: prior-art monoclonal antibodies; cited from earlier work

AcSpm-GMB-AMS-BSA [lot No. 5]
activity to inhibit the reaction of anti-DiAcSpm polyclonal antibody with solid-phased antigen [1]: comes next

AcSpm-GMB-AMS-BSA [lot No. 6]
activity to inhibit the reaction of anti-DiAcSpm polyclonal antibody with solid-phased antigen [1]: highest inhibition activity

CC(=O)NCCCCN [AcPut]
KiDiAcSpm/Ki"S" (%) . . . (1) [2]: 0.0001%
Crossreactivity (1) × (2) (%) [2]: 0.01%

CC(=O)NCCCCNCCCN [N8-AcSpd, N^8-acetylspermidine]
KiDiAcSpm/Ki"S" (%) . . . (1) [2]: 0.0003%
Crossreactivity (1) × (2) (%) [2]: 0.01%

CC(=O)NCCCNCCCCN [N1-AcSpd, N^1-acetylspermidine]
crossreactivity of the antibody with the analog in the urine of healthy persons [3]: 25
50% reaction inhibition activity of N^1-AcSpd relative to that of DiAcSpm ([4]; one well of 51 selected clones): 3,000 times
50% reaction inhibition activity of N^1-AcSpd relative to that of DiAcSpm ([4]; the other wells of 51 selected clones): 0-200 times
50% reaction inhibition activity of N^1-AcSpd relative to that of DiAcSpm ([4]; two wells of 51 selected clones): about 800 times
50% inhibition activity of DiAcSpm relative to that of the analog [5]: about 1,000 times
KiDiAcSpm/Ki"S" (%) . . . (1) [2]: 0.0610%
Crossreactivity (1) × (2) (%) [2]: 1.62%
50% binding inhibition activity against immunoreaction with DiAcSpm relative to that with the analog [6]: about 100 times

CC(=O)NCCCCNCCCNC(C)=O [DiAcSpd, N^1,N^8-diacetylspermidine]
KiDiAcSpm/Ki"S" (%) . . . (1) [2]: 0.0008%
Crossreactivity (1) × (2) (%) [2]: 0.002%

AcSpm-GMB-AMS-BSA [lot No. 1]
activity to inhibit the reaction of anti-DiAcSpm polyclonal antibody with solid-phased antigen [1]: highest inhibition activity

CC(=O)NCCCNCCCCNCCCN [AcSpm, N^1-acetylspermine]
50% inhibition activity of DiAcSpm relative to that of the analog [5]: about 70 times
KiDiAcSpm/Ki"S" (%) . . . (1) [2]: 1.7072%
Crossreactivity (1) × (2) (%) [2]: 0.54%
50% binding inhibition activity against immunoreaction with DiAcSpm relative to that with the analog [6]: about 20 times

CC(=O)NCCCNCCCCNCCCNC(C)=O [DiAcSpm, N^1,N^12-diacetylspermine]
50% inhibition activity of DiAcSpm relative to that of the analog [5]: about 100,000 times
KiDiAcSpm/Ki"S" (%) . . . (1) [2]: 100%
Crossreactivity (1) × (2) (%) [2]: 100%
